# Reference: US12006321B2, “Substituted pyrazolo[1,5-a]pyrimidines as apelin receptor agonists” (Sanford Burnham Prebys Medical Discovery Institute, priority 2017, dated 2024)
# Target: T1, human apelin receptor (APJ, APLNR) (Homo sapiens, UniProt P35414)
# T1 construct: host or cells: Chinese hamster ovary (CHO) cells, stably integrated receptor
# T1 sequence (P35414 1-380): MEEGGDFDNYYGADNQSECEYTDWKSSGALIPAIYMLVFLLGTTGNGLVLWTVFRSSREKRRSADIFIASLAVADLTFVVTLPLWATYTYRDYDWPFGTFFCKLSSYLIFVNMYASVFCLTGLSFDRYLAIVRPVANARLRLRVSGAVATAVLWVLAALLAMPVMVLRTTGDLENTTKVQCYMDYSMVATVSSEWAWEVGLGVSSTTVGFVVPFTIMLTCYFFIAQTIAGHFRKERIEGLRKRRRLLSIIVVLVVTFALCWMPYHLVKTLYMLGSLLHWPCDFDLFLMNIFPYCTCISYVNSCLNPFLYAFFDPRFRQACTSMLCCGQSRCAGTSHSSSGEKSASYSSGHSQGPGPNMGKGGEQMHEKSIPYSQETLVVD
# Assay: cell-based cAMP assay (TR-FRET) in Chinese hamster ovary cells expressing the apelin receptor
# Details: EC50 = 50% of control (apelin-13, 1 nM) response; cAMP in CHO cells, 0.5 h incubation; read-out: Potency Category
# In short: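 CHO cells stably expressing human APJ were forskolin-stimulated, then exposed to compound (0.0-100 μM, ≤1% DMSO) for 0.5 h. Lysate cAMP read by competitive TR-FRET immunoassay; EC50 and efficacy expressed relative to 1 nM apelin-13, four-parameter fit over ≥10 concentrations.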
row,SMILES,EC50
1,"COCc1nn2c(C(C)C)cc(C(=O)O)nc2c1-c1c(C)cccc1C [Compound 89, 3-(2,6-dimethylphenyl)-2-(methoxymethyl)-7-(methylethyl)-8-hydropyrazolo[1,5-a]pyrimidine-5-carboxylic acid]",> 500 nM
2,"Cc1cccc(C)c1-c1c(CN(C)C)nn2c(C(C)C)cc(C(=O)O)nc12 [Compound 90, 2-[(dimethylamino)methyl]-3-(2,6-dimethylphenyl)-7-(methylethyl)-8-hydropyrazolo[1,5-a]pyrimidine-5-carboxylic acid]",> 500 nM
3,"CCOC(=O)c1cc(C(C)C)n2nc(C)c(-c3c(F)cccc3OC)c2n1 [Compound 91, ethyl 3-(6-fluoro-2-methoxyphenyl)-2-methyl-7-(methylethyl)-8-hydropyrazolo[1,5-a]pyrimidine-5-carboxylate]",> 500 nM
4,"COc1cccc(F)c1-c1c(C)nn2c(C(C)C)cc(C(=O)O)nc12 [Compound 92, 3-(6-fluoro-2-methoxyphenyl)-2-methyl-7-(methylethyl)-8-hydropyrazolo[1,5-a]pyrimidine-5-carboxylic acid]",> 500 nM
5,"Cc1cccc(Cl)c1-c1c(C)nn2c(C(C)C)cc(C(=O)O)nc12 [Compound 93, 3-(6-chloro-2-methylphenyl)-2-methyl-7-(methylethyl)-8-hydropyrazolo[1,5-a]pyrimidine-5-carboxylic acid]",200 to 500 nM
6,"CCOC(=O)c1cc(C(C)C)n2nc(C)c(-c3c(C)cccc3Cl)c2n1 [Compound 94, ethyl 3-(6-chloro-2-methylphenyl)-2-methyl-7-(methylethyl)-8-hydropyrazolo[1,5-a]pyrimidine-5-carboxylate]",> 500 nM
7,"COC(=O)c1cc(C(C)C)n2nc(C(=O)OC)c(-c3c(C)cccc3C)c2n1 [Compound 95, methyl 3-(2,6-dimethylphenyl)-2-(methoxycarbonyl)-7-(methylethyl)-8-hydropyrazolo[1,5-a]pyrimidine-5-carboxylate]",> 500 nM
8,"Cc1cccc(C)c1-c1c(C(=O)O)nn2c(C(C)C)cc(C(=O)O)nc12 [Compound 96, 3-(2,6-dimethylphenyl)-7-(methylethyl)-8-hydropyrazolo[1,5-a]pyrimidine-2,5-dicarboxylic acid]",> 500 nM
9,"CCOC(=O)c1cc(N2CCOCC2)n2nc(C)c(-c3c(C)cccc3C)c2n1 [Compound 97, ethyl 3-(2,6-dimethylphenyl)-2-methyl-7-morpholin-4-yl-8-hydropyrazolo[1,5-a]pyrimidine-5-carboxylate]",> 500 nM
10,"Cc1cccc(C)c1-c1c(C)nn2c(N3CCOCC3)cc(C(=O)O)nc12 [Compound 98, 3-(2,6-dimethylphenyl)-2-methyl-7-morpholin-4-yl-8-hydropyrazolo[1,5-a]pyrimidine-5-carboxylic acid]",> 500 nM
11,"COc1cc(C(=O)O)nc2c(-c3c(C)cccc3C)c(C)nn12 [Compound 99, 3-(2,6-dimethylphenyl)-7-methoxy-2-methyl-8-hydropyrazolo[1,5-a]pyrimidine-5-carboxylic acid]",> 500 nM
12,"CCOC(=O)c1cc(C(C)C)n2nc(C(=O)N(C)C)c(-c3c(C)cccc3C)c2n1 [Compound 100, ethyl 2-(N,N-dimethylcarbamoyl)-3-(2,6-dimethylphenyl)-7-(methylethyl)-8-hydropyrazolo[1,5-a]pyrimidine-5-carboxylate]",> 500 nM
13,"Cc1cccc(C)c1-c1c(C(=O)N(C)C)nn2c(C(C)C)cc(C(=O)O)nc12 [Compound 101, 2-(N,N-dimethylcarbamoyl)-3-(2,6-dimethylphenyl)-7-(methylethyl)-8-hydropyrazolo[1,5-a]pyrimidine-5-carboxylic acid]",> 500 nM
14,"CNc1cc(C(=O)O)nc2c(-c3c(C)cccc3C)c(C)nn12 [Compound 102, 3-(2,6-dimethylphenyl)-2-methyl-7-(methylamino)-8-hydropyrazolo[1,5-a]pyrimidine-5-carboxylic acid]",> 500 nM
15,"Cc1cccc(C)c1-c1c(C)nn2c(N(C)C)cc(C(=O)O)nc12 [Compound 103, 7-(dimethylamino)-3-(2,6-dimethylphenyl)-2-methyl-8-hydropyrazolo[1,5-a]pyrimidine-5-carboxylic acid]",> 500 nM
16,"Cc1nn2c(C(C)C)cc(C(=O)O)nc2c1-c1c(F)cccc1F [Compound 104, 3-(2,6-difluorophenyl)-2-methyl-7-(methylethyl)-8-hydropyrazolo[1,5-a]pyrimidine-5-carboxylic acid]",> 500 nM
17,"CCOC(=O)c1cc(C(C)C)n2nc(C)c(-c3c(F)cccc3F)c2n1 [Compound 105, ethyl 3-(2,6-difluorophenyl)-2-methyl-7-(methylethyl)-8-hydropyrazolo[1,5-a]pyrimidine-5-carboxylate]",> 500 nM

row,SMILES,EC50
1,"Cc1cccc(C)c1-c1c(C)nn2c(N3CCN(C)CC3)cc(C(=O)O)nc12 [Compound 106, 3-(2,6-dimethylphenyl)-2-methyl-7-(4-methylpiperazinyl)-8-hydropyrazolo[1,5-a]pyrimidine-5-carboxylic acid]",> 500 nM
2,"Cc1cccc(C)c1-c1c(C)nn2c(Oc3ccccc3)cc(C(=O)O)nc12 [Compound 107, 3-(2,6-dimethylphenyl)-2-methyl-7-phenoxy-8-hydropyrazolo[1,5-a]pyrimidine-5-carboxylic acid]",> 500 nM
3,"CCOC(=O)c1cc(N2CCN(C)CC2)n2nc(C)c(-c3c(C)cccc3C)c2n1 [Compound 108, ethyl 3-(2,6-dimethylphenyl)-2-methyl-7-(4-methylpiperazinyl)-8-hydropyrazolo[1,5-a]pyrimidine-5-carboxylate]",> 500 nM
4,"CCOC(=O)c1cc(Oc2ccccc2)n2nc(C)c(-c3c(C)cccc3C)c2n1 [Compound 109, ethyl 3-(2,6-dimethylphenyl)-2-methyl-7-phenoxy-8-hydropyrazolo[1,5-a]pyrimidine-5-carboxylate]",> 500 nM
5,"Cc1cccc(C)c1-c1c(C)nn2c(C(C)C)cc(N)nc12 [Compound 110, 3-(2,6-dimethylphenyl)-2-methyl-7-(methylethyl)-8-hydropyrazolo[1,5-a]pyrimidine-5-ylamine]",> 500 nM
6,"CC(=O)Nc1cc(C(C)C)n2nc(C)c(-c3c(C)cccc3C)c2n1 [Compound 111, N-[3-(2,6-dimethylphenyl)-2-methyl-7-(methylethyl)-8-hydropyrazolo[1,5-a]pyrimidin-5-yl]acetamide]",> 500 nM
7,"CCOC(=O)c1cc(C(C)C)n2nc(C)c(-c3c(F)cccc3Cl)c2n1 [Compound 112, ethyl 3-(2-chloro-6-fluorophenyl)-2-methyl-7-(methylethyl)-8-hydropyrazolo[1,5-a]pyrimidine-5-carboxylate]",> 500 nM
8,"Cc1nn2c(C(C)C)cc(C(=O)O)nc2c1-c1c(F)cccc1Cl [Compound 113, 3-(2-chloro-6-fluorophenyl)-2-methyl-7-(methylethyl)-8-hydropyrazolo[1,5-a]pyrimidine-5-carboxylic acid]",> 500 nM
9,"CCOC(=O)c1cc(C(C)C)n2nc(C)c(-c3c(Cl)cccc3Cl)c2n1 [Compound 114, ethyl 3-(2,6-dichlorophenyl)-2-methyl-7-(methylethyl)-8-hydropyrazolo[1,5-a]pyrimidine-5-carboxylate]",> 500 nM
10,"Cc1nn2c(C(C)C)cc(C(=O)O)nc2c1-c1c(Cl)cccc1Cl [Compound 115, 3-(2,6-dichlorophenyl)-2-methyl-7-(methylethyl)-8-hydropyrazolo[1,5-a]pyrimidine-5-carboxylic acid]",> 500 nM
11,CCc1cccc(CC)c1-c1c(C)nn2c(C(C)C)cc(C(=O)O)nc12 [Compound 116],200 to 500 nM
12,"CCOC(=O)c1cc(Nc2ccccc2)n2nc(C)c(-c3c(C)cccc3C)c2n1 [Compound 117, ethyl 3-(2,6-dimethylphenyl)-2-methyl-7-(phenylamino)-8-hydropyrazolo[1,5-a]pyrimidine-5-carboxylate]",> 500 nM
13,"Cc1cccc(C)c1-c1c(C)nn2c(Nc3ccccc3)cc(C(=O)O)nc12 [Compound 118, 3-(2,6-dimethylphenyl)-2-methyl-7-(phenylamino)-8-hydropyrazolo[1,5-a]pyrimidine-5-carboxylic acid]",> 500 nM
14,"COc1cccc(Cl)c1-c1c(C)nn2c(C(C)C)cc(C(=O)O)nc12 [Compound 119, 3-(6-chloro-2-methoxyphenyl)-2-methyl-7-(methylethyl)-8-hydropyrazolo[1,5-a]pyrimidine-5-carboxylic acid]",> 500 nM
15,"Cc1nn2c(C(C)C)cc(C(=O)O)nc2c1-c1c(F)cccc1C#N [Compound 120, 3-(2-cyano-6-fluorophenyl)-2-methyl-7-(methylethyl)-8-hydropyrazolo[1,5-a]pyrimidine-5-carboxylic acid]",> 500 nM
16,"CCc1cccc(C)c1-c1c(C)nn2c(C(C)C)cc(C(=O)O)nc12 [Compound 121, 3-(6-ethyl-2-methylphenyl)-2-methyl-7-(methylethyl)-8-hydropyrazolo[1,5-a]pyrimidine-5-carboxylic acid]",> 500 nM
17,"COC(=O)c1cc(N2CCCC2)n2nc(C)c(-c3c(C)cccc3C)c2n1 [Compound 122, methyl 3-(2,6-dimethylphenyl)-2-methyl-7-pyrrolidinyl-8-hydropyrazolo[1,5-a]pyrimidine-5-carboxylate]",> 500 nM
